Reference: ChEMBL document CHEMBL4477225, “Development of a cell viability assay to assess drug metabolite structure-toxicity relationships” (Bioorg Med Chem Lett, 2016)

Tests used:
Conditions in all cases: recombinant enzyme
[1] = molecular target: T1, Cytochrome P450 3A4 (Homo sapiens, UniProt P08684); assay: (§1) Drug activation in human Hep3B cells assessed as human CYP3A4-mediated drug metabolism-induced cytotoxicity measured as decrease in cell viability at 69.6 uM pre-incubated with BSO for 18 hrs followed by incubation with compound for 3 hrs in presence of NADPH measured after 24 hrs in absence of compound, CYP3A4 and NADPH by cell titer-glo luminescence assay relative to BSO alone; assay type: ADME, cell-based
[2] = molecular target: T2, Cytochrome P450 2D6 (Homo sapiens, UniProt P10635); assay: as §1, with “CYP2D6-mediated” for “CYP3A4-mediated”, “17.6” for “69.6”; assay type: ADME, cell-based
[3] = molecular target: Cytochrome P450 2C9 (Homo sapiens, UniProt P11712); assay: as §1, with “CYP2C9-mediated” for “CYP3A4-mediated”, “300” for “69.6”
[4] = molecular target: T1, Cytochrome P450 3A4; assay: as §1, with “90.1” for “69.6”; assay type: ADME, cell-based
[5] = molecular target: T2, Cytochrome P450 2D6; assay: as §1, with “CYP2D6-mediated” for “CYP3A4-mediated”, “78.6” for “69.6”; assay type: ADME, cell-based
[6] = molecular target: T1, Cytochrome P450 3A4; assay: as §1, with “25.3” for “69.6”; assay type: ADME, cell-based
[7] = molecular target: T1, Cytochrome P450 3A4; assay: as §1, with “22.2” for “69.6”; assay type: ADME, cell-based
[8] = molecular target: T2, Cytochrome P450 2D6; assay: as §1, with “CYP2D6-mediated” for “CYP3A4-mediated”, “5.8” for “69.6”; assay type: ADME, cell-based
[9] = molecular target: T2, Cytochrome P450 2D6; assay: as §1, with “CYP2D6-mediated” for “CYP3A4-mediated”, “65.4” for “69.6”; assay type: ADME, cell-based
[10] = molecular target: T1, Cytochrome P450 3A4; assay: as §1, with “56.4” for “69.6”; assay type: ADME, cell-based
[11] = molecular target: T1, Cytochrome P450 3A4; assay: as §1, with “300” for “69.6”
[12] = molecular target: T2, Cytochrome P450 2D6; assay: as §1, with “CYP2D6-mediated” for “CYP3A4-mediated”, “300” for “69.6”
[13] = molecular target: T1, Cytochrome P450 3A4; assay: as §1, with “8.7” for “69.6”; assay type: ADME, cell-based
[14] = molecular target: T2, Cytochrome P450 2D6; assay: as §1, with “CYP2D6-mediated” for “CYP3A4-mediated”, “12.9” for “69.6”; assay type: ADME, cell-based
[15] = molecular target: T2, Cytochrome P450 2D6; assay: as §1, with “CYP2D6-mediated” for “CYP3A4-mediated”, “264.7” for “69.6”; assay type: ADME, cell-based

Sequence of Cytochrome P450 2C9 (P11712 whole entry): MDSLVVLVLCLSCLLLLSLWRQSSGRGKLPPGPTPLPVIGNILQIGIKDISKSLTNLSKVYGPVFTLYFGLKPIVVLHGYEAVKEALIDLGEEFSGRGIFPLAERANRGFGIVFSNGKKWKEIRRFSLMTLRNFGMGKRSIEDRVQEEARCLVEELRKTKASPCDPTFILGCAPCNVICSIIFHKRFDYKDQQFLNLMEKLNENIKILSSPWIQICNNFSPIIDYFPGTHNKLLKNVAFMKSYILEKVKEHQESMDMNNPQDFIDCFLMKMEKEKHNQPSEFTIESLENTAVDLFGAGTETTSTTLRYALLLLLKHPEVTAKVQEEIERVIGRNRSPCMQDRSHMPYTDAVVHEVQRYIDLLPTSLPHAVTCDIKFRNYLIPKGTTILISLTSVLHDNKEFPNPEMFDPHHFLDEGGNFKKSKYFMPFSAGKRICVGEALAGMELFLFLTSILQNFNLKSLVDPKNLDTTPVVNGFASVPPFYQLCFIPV
T2 sequence (P10635 whole entry): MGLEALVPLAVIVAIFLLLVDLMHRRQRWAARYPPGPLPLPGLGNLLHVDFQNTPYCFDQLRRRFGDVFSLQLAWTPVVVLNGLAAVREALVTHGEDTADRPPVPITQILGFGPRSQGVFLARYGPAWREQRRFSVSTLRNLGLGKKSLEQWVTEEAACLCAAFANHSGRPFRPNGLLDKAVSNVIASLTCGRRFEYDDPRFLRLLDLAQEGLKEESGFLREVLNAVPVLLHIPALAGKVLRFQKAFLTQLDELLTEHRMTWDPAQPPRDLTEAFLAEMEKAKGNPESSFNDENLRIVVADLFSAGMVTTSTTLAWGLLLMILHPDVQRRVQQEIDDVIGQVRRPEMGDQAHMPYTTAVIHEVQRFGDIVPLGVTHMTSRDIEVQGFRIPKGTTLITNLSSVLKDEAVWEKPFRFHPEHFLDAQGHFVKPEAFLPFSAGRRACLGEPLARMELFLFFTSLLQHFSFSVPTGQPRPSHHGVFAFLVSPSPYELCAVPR
T1 sequence (P08684 whole entry): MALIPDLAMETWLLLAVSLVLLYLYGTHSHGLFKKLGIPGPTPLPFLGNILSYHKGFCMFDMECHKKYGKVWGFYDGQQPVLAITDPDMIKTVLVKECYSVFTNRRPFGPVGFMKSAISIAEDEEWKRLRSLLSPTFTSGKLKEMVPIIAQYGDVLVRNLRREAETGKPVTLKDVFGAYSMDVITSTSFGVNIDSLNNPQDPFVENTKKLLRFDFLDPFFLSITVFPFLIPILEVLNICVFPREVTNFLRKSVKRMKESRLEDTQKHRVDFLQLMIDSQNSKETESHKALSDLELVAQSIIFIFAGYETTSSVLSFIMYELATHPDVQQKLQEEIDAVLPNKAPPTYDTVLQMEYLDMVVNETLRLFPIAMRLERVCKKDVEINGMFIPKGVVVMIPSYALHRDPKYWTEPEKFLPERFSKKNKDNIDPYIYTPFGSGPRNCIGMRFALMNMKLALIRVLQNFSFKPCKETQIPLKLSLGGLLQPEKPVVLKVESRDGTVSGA

SMILES	FC [3]	FC [11]	FC [12]	also measured
Cl.Nc1ccc(/N=N/c2ccccc2)c(N)n1 [PHENAZOPYRIDINE HYDROCHLORIDE]	1			fold change (FC) [1]: 4.3; fold change (FC) [2]: 17
CNC(=C[N+](=O)[O-])NCCSCc1ccc(CN(C)C)o1 [RANITIDINE]	1			fold change (FC) [4]: 3.3; fold change (FC) [5]: 3.8
CC/C(=C(\c1ccccc1)c1ccc(OCCN(C)C)cc1)c1ccccc1 [TAMOXIFEN]				fold change (FC) [6]: 0.8
Cc1nc(C)c2c(n1)N(Cc1ccc(-c3ccccc3-c3nnn[nH]3)cc1)C(=O)CC2 [TASOSARTAN]	1			fold change (FC) [7]: 13.5; fold change (FC) [8]: 52
CN(C)[C@@H]1C(O)=C(C(N)=O)C(=O)[C@@]2(O)C(O)=C3C(=O)c4c(O)cccc4[C@@](C)(O)[C@H]3C[C@@H]12 [TETRACYCLINE]				fold change (FC) [9]: 2.5; fold change (FC) [10]: 2.9
Nc1nc2nc[nH]c2c(=S)[nH]1 [THIOGUANINE]	1	1	1	
Cc1ccc(C(=O)c2cc(O)c(O)c([N+](=O)[O-])c2)cc1 [TOLCAPONE]	1	1	1	
O=c1n(CCCN2CCN(c3cccc(Cl)c3)CC2)nc2ccccn12 [TRAZODONE]	1			fold change (FC) [13]: 34.4; fold change (FC) [14]: 23.2
N[C@@H]1[C@H]2CN(c3nc4c(cc3F)c(=O)c(C(=O)O)cn4-c3ccc(F)cc3F)C[C@@H]12 [TROVAFLOXACIN]	1	1		fold change (FC) [15]: 1.1
CCCC(CCC)C(=O)O [VALPROIC ACID]	1	1	1	
CC(=O)CC(c1ccccc1)c1c(O)c2ccccc2oc1=O (stereo unspecified) [WARFARIN]	1	1	1	
Nc1ccn([C@H]2CC[C@@H](CO)O2)c(=O)n1 [ZALCITABINE]	1	1	1	
Cc1cn([C@H]2C[C@H](N=[N+]=[N-])[C@@H](CO)O2)c(=O)[nH]c1=O [ZIDOVUDINE]	1	1	1	
